The text below walks through data of patent publication US9018200B2, “Substituted piperidinyl compounds useful as GPR119 agonists” (Merck Sharp & Dohme Corp., priority 2011, dated 2015).

The first assay has as its target T1, human GPR119 (Homo sapiens, UniProt Q8TDV5).
T1 sequence (Q8TDV5 1-308 limits assumed): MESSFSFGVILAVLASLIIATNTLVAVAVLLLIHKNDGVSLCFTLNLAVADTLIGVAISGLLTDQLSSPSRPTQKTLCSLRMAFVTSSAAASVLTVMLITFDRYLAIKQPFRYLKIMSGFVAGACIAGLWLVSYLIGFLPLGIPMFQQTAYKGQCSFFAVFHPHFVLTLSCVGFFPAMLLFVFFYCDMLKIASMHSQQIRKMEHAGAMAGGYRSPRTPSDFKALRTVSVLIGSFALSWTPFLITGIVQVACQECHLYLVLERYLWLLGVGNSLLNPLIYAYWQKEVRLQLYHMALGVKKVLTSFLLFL
Description: Measurement of GPR119 signaling (cAMP assay) in HEK 293 cells stably transfected with human GPR119. Type of assay: cell-based.
Settings: not given
The text has this: Measurement of GPR119 Signaling (Cyclic AMP (cAMP) Assay)
Human embryonic kidney (HEK) 293 cell lines stably transfected with human GPR119 were maintained in Dulbecco's Modified Eagle Medium (DMEM) containing fetal bovine serum (FBS), penicillin-streptomycin, HEPES buffer (4-(2-hydroxyethyl)-1-piperazineethane sulfonic acid), and hygromycin. For the cAMP assay, the transfected cells were harvested using a non-enzymatic cell dissociation solution (GIBCO 2672), pelleted and resuspended in stimulation buffer (DMEM, 25 mM HEPES, 0.1% bovine serum albumin (BSA), pH 7.4 in the presence of 100 μM phosphodiesterase inhibitors). The adenylate cyclase assay was constructed following the LANCE™ cAMP Kit (Perkin Elmer, AD0264) instructions.
Briefly, cells with Alexa Fluor® 647-anti cAMP antibody were incubated with 10 point series diluted test article in stimulation buffer with a final concentration of 2.5% DMSO for 45 minutes. The reaction was stopped by incubating with the supplied detection buffer containing the europium chelate of the Eu-SA/Biotin-cAMP tracer for 3 hours. The assay was performed in duplicate in a 384 well plate for duplicate plates and fluorescence was measured at 665 nm. Basal activity was determined using a DMSO control and maximum response was defined as cAMP stimulation produced by an internal agonist control. Standard cAMP concentrations were assayed concurrently for conversion of fluorescence signal to cAMP level. The data was analyzed using 4-parameter curve fit in Microsoft Excel. […]
(cAMP levels reflect the balance of adenylyl cyclase and phosphodiesterase activity.)
What is called EC50 is the concentration needed to bring the measured effect to its halfway point. A higher EC50 goes with weaker potency. As for `COC(=O)c1c(F)cc(OCC[C@@H]2C[C@@H]2C2CCN(CC(F)(F)F)CC2)cc1F` [Example 1, Methyl 2,6-difluoro-4-(2-{(1S,2R)-2-[1-(2,2,2-trifluoroethyl)piperidin-4-yl]cyclopropyl}ethoxy)benzoate], the EC50 turned out to be 28.7 nM.
The same measure, in the same setting: the figure for `O=C(NC1CC1)c1c(F)cc(OCC[C@@H]2C[C@@H]2C2CCN(CC(F)(F)F)CC2)cc1F` [Example 3, N-Cyclopropyl-2,6-difluoro-4-(2-{(1S,2R)-2-[1-(2,2,2-trifluoroethyl)piperidin-4-yl]cyclopropyl}ethoxy)benzamide] is 5.28 nM.
The same measure, in the same setting: with `CS(=O)(=O)c1ccc(OCC[C@@H]2C[C@@H]2C2CCN(CC(F)(F)F)CC2)cc1` [Example 4, 4-[(1R,2S)-2-{2-[4-(Methylsulfonyl)phenoxy]ethyl}cyclopropyl]-1-(2,2,2-trifluoroethyl)piperidine] the figure was 176 nM.

Staying with this assay, now noted: table of Examples 5-56.
`CC(C)(CN1CCC([C@H]2C[C@H]2CCOc2ccc(C(=O)NC3CC3)c(F)c2)CC1)C(F)(F)F` [Example 42] gave an EC50 of 2.34 nM.
`O=C(c1c(F)cc(OCC[C@@H]2C[C@@H]2C2CCN(CC(F)(F)F)CC2)cc1F)N1CC(F)(F)C1` [Example 31] registered a half-maximal effective concentration (EC50) of 45.8 nM.
The same measure, in the same setting: with `O=C(c1ccc(OCC[C@@H]2C[C@@H]2C2CCN(CC(F)(F)C(F)(F)F)CC2)cc1F)N1CCC(O)C1` (some centres unmarked) [Example 20] the figure was 13.4 nM; with `O=C(NC1CC1(F)F)c1c(F)cc(OCC[C@@H]2C[C@@H]2C2CCN(CC(F)(F)F)CC2)cc1F` (some centres unmarked) [Example 18], 5.87 nM; with `O=C(NC1CCOCC1)c1c(F)cc(OCC[C@@H]2C[C@@H]2C2CCN(CC(F)(F)F)CC2)cc1F` [Example 34], 77.3 nM.
The same measure, in the same setting: the figure for `CCC(F)(F)CN1CCC([C@H]2C[C@H]2CCOc2ccc(C(=O)NC3CC3)c(F)c2)CC1` [Example 16] is 5.34 nM; for `CCC(F)(F)CN1CCC([C@H]2C[C@H]2CCOc2ccc(S(C)(=O)=O)c(F)c2)CC1` [Example 25] it is 22.5 nM.
The same measure, in the same setting: the figure for `O=C(NC1CC1)c1c(F)cc(OCC[C@@H]2C[C@@H]2C2CCN(CC(F)(F)F)CC2)cc1F` [Example 15] is 5.28 nM.
`O=C(NC1CC1)c1ccc(OCC[C@@H]2C[C@@H]2C2CCN(CC(F)(F)C(F)(F)F)CC2)cc1F` [Example 6] displayed an EC50 of 0.52 nM.
The same measure, in the same setting: with `FC(F)(F)C(F)(F)CN1CCC([C@H]2C[C@H]2CCOc2ccc(-n3cncn3)cc2)CC1` [Example 50] the figure was 26.9 nM; with `CCC(F)(F)CN1CCC([C@H]2C[C@H]2CCOc2cc(F)c(C(=O)C3CC3)c(F)c2)CC1` [Example 45], 1.65 nM; with `O=C1Cc2cc(OCC[C@@H]3C[C@@H]3C3CCN(CC(F)(F)C(F)(F)F)CC3)cc(F)c2N1` [Example 43], 7.13 nM.
Still for that read-out and setting: with `CCC(F)(F)CN1CCC([C@H]2C[C@H]2CCOc2cc(F)c(S(C)(=O)=O)c(F)c2)CC1` [Example 28] the figure was 35.3 nM.
Still for that read-out and setting: with `CS(=O)(=O)c1ccc(OCC[C@@H]2C[C@@H]2C2CCN(CC(F)(F)C(F)(F)F)CC2)nc1` [Example 21] the figure was 14 nM; with `COCCNC(=O)c1c(F)cc(OCC[C@@H]2C[C@@H]2C2CCN(CC(F)(F)F)CC2)cc1F` [Example 33], 68 nM.
`O=C(NC1CC1)c1ccc(OCC[C@@H]2C[C@@H]2C2CCN(CCC(F)(F)F)CC2)cc1F` [Example 41] showed an EC50 of 59.3 nM.
The same measure, in the same setting: the figure for `Cc1nnc(-c2ccc(OCC[C@@H]3C[C@@H]3C3CCN(CC(F)(F)F)CC3)cc2F)o1` [Example 54] is 59.5 nM; for `CC(C)(C)NC(=O)c1ccc(OCC[C@@H]2C[C@@H]2C2CCN(CC(F)(F)C(F)(F)F)CC2)cc1F` [Example 13] it is 3.83 nM; for `Cc1cc(OCC[C@@H]2C[C@@H]2C2CCN(CC(F)(F)F)CC2)cc(C#N)n1` [Example 37] it is 199 nM.
Same read-out and setting: the figure for `FC(F)(F)C(F)(F)CN1CCC([C@H]2C[C@H]2CCOc2ccc(-n3cnnn3)cc2)CC1` [Example 49] is 24.2 nM.
With `C=CCCC(=O)c1ccc(OCC[C@@H]2C[C@@H]2C2CCN(CC(F)(F)C(F)(F)F)CC2)cc1F` [Example 56], the EC50 came to 13.4 nM.
The same measure, in the same setting: with `Cc1nc(-c2ccc(OCC[C@@H]3C[C@@H]3C3CCN(CC(F)(F)C(F)(F)F)CC3)cc2)no1` [Example 52] the figure was 40.8 nM; with `CC(C)(CO)NC(=O)c1ccc(OCC[C@@H]2C[C@@H]2C2CCN(CC(F)(F)C(F)(F)F)CC2)cc1F` [Example 9], 2.34 nM; with `O=C(NCCO)c1ccc(OCC[C@@H]2C[C@@H]2C2CCN(CC(F)(F)C(F)(F)F)CC2)cc1F` [Example 17], 5.38 nM.
On the same count and under the same terms, the figure for `CS(=O)(=O)c1c(F)cc(COC[C@@H]2C[C@@H]2C2CCN(CC(F)(F)F)CC2)cc1F` [Example 55] is 568 nM.
Still for that read-out and setting: the figure for `CS(=O)(=O)c1ccc(OCC[C@@H]2C[C@@H]2C2CCN(CC(F)(F)C(F)(F)F)CC2)cc1F` [Example 14] is 4.35 nM; for `O=C(NCc1cnoc1)c1ccc(OCC[C@@H]2C[C@@H]2C2CCN(CC(F)(F)C(F)(F)F)CC2)cc1F` [Example 12] it is 3.69 nM; for `COC(=O)c1c(F)cc(OCC[C@@H]2C[C@@H]2C2CCN(CC(F)(F)F)CC2)cc1F` [Example 51] it is 28.7 nM.
The compound `O=C1Cc2cc(OCC[C@@H]3C[C@@H]3C3CCN(CC(F)(F)F)CC3)ccc2N1` [Example 39] came in with an EC50 of 270 nM.
The same measure, in the same setting: with `O=C(c1ccc(OCC[C@@H]2C[C@@H]2C2CCN(CC(F)(F)F)CC2)cc1F)N1CCC(O)C1` (some centres unmarked) [Example 38] the figure was 257 nM.
Same read-out and setting: with `O=C(NCC1CCCO1)c1ccc(OCC[C@@H]2C[C@@H]2C2CCN(CC(F)(F)C(F)(F)F)CC2)cc1F` (some centres unmarked) [Example 8] the figure was 1.6 nM; with `CC(C)(C)NC(=O)c1c(F)cc(OCC[C@@H]2C[C@@H]2C2CCN(CC(F)(F)F)CC2)cc1F` [Example 19], 12.2 nM; with `Cc1nnc(-c2ccc(OCC[C@@H]3C[C@@H]3C3CCN(CC(F)(F)C(F)(F)F)CC3)cc2F)o1` [Example 46], 7.31 nM.
On the same count and under the same terms, with `CCC(F)(F)CN1CCC([C@H]2C[C@H]2CCOc2cc(F)c(C(=O)NC3CC3)c(F)c2)CC1` [Example 5] the figure was 0.43 nM; with `Cc1nc(C#N)cc(OCC[C@@H]2C[C@@H]2C2CCN(CC(F)(F)F)CC2)n1` [Example 35], 126 nM; with `CC(C)(O)C1CCCN(C(=O)c2ccc(OCC[C@@H]3C[C@@H]3C3CCN(CC(F)(F)C(F)(F)F)CC3)cc2F)C1` (some centres unmarked) [Example 23], 18.4 nM.
In turn, `O=C(NC1CC(F)(F)C1)c1c(F)cc(OCC[C@@H]2C[C@@H]2C2CCN(CC(F)(F)F)CC2)cc1F` [Example 24] yielded an EC50 of 20.3 nM.
Still for that read-out and setting: with `O=C(NC1CC1)c1ccc(OCC[C@@H]2C[C@@H]2C2CCN(CC(F)(F)C(F)F)CC2)cc1F` [Example 11] the figure was 3.16 nM; with `CC(=O)c1ccc(OCC[C@@H]2C[C@@H]2C2CCN(CC(F)(F)C(F)(F)F)CC2)cc1F` [Example 44], 51.6 nM; with `CS(=O)(=O)c1ccc(OCC[C@@H]2C[C@@H]2C2CCN(CC(F)(F)F)CC2)nc1` [Example 27], 27.8 nM.
The same measure, in the same setting: the figure for `CS(=O)(=O)c1ccc(OCC[C@@H]2C[C@@H]2C2CCN(CC(F)(F)C(F)(F)F)CC2)cc1` [Example 26] is 23.6 nM.
`CC(C)(C)NC(=O)c1ccc(OCC[C@@H]2C[C@@H]2C2CCN(CC(F)(F)F)CC2)cc1F` [Example 53] displayed a concentration for a half-maximal effect (EC50) of 57.9 nM.
The compound `CCC(F)(F)CN1CCC([C@H]2C[C@H]2CCOc2cc(F)c(C(=O)NC3(C)CC3)c(F)c2)CC1` [Example 7] yielded an EC50 of 1.2 nM.
For `CC(F)(F)CN1CCC([C@H]2C[C@H]2CCOc2ccc(S(C)(=O)=O)cn2)CC1` [Example 40], the EC50 turned out to be 776 nM.
Still for that read-out and setting: the figure for `O=C(NCC1(O)CC1)c1ccc(OCC[C@@H]2C[C@@H]2C2CCN(CC(F)(F)C(F)(F)F)CC2)cc1F` [Example 10] is 3.02 nM.
The same measure, in the same setting: with `CS(=O)(=O)c1ccc(OCC[C@@H]2C[C@@H]2C2CCN(CC(F)(F)F)CC2)cc1` [Example 36] the figure was 176 nM.
For `O=C(NC1CC1)c1ccc(OCC[C@@H]2C[C@@H]2C2CCN(CC(F)(F)F)CC2)cc1F` [Example 22], the response was half-maximal at 16.7 nM (EC50). This EC50 lies about 11-fold lower than the previous one.
